Common to all, as to assay type: cell-based, mouse
Assay [1] relates to ESCs. Briefly: Glutamine deprivation: growth curves, viability and colony formation. As to conditions: DM-αKG 4 mM. Here is the method:
For glutamine deprivation experiments in mouse ESCs, cells were initially plated in standard S/L medium as described above. The following day, cells were washed with PBS and then cultured in experimental medium containing a 1:1 mix of glutamine-free DMEM (Gibco 11960-051) and glutamine-free Neurobasal medium (Gibco 21103-049) including 10% dialyzed FBS, 2-mercaptoethanol, and LIF as described above and containing (“+Q”) or lacking (“−Q”) L-glutamine (2 mM) as indicated. When indicated, dimethyl-α-ketoglutarate (Sigma 349631) dissolved in DMSO was added to a final concentration of 4 mM. […]
ESCs were seeded at a density of 30,000-40,000 cells per well of a 12-well plate. The following day, three wells of each line were counted to determine the starting cell number. […] Cells were counted on the indicated days thereafter using a Beckman Multisizer 4e with a cell volume gate of 400-10,000 fL. […]
Evaluation of cell viability and Nanog-GFP expression. […] Cells were evaluated for GFP and DAPI on either a LSRFortessa or LSR-II machine and FACSDiva software ([…] Dickinson). […] Nanog-GFP expression was measured by GFP mean fluorescence intensity and quantified using FlowJo v9.0. […]

A further assay relates to Nanog-GFP ESCs. In words: Nanog-GFP expression by flow cytometry after pulse treatment. As to conditions: 24 h pulse in glutamine-containing S/L medium, 24 h recovery; FIG. 7E-7F. Here is the method: For transient glutamine withdrawal (“pulse”) experiments, cells were initially plated in standard S/L medium as described above. The following day, cells were washed with PBS and then changed to experimental medium containing a 1:1 mix of glutamine-free DMEM and glutamine-free Neurobasal medium including 10% dialyzed FBS, 2-mercaptoethanol, LIF, and containing (“Ctrl”) or lacking (“Pulse”) L-glutamine as indicated. 24 hours later, cells were washed with PBS and then returned to glutamine-replete medium (“Recover”). 24 hours later, cells were subjected to either image analysis, flow cytometry, or plated for colony formation assays as indicated. For glutamine pulse experiments in human ESCs, cells were initially plated at a density of 300,000 cells/well in a tissue-culture treated polystyrene 12-well plate coated with vitronectin (Thermo Fisher Scientific, A14700) in E8 medium (Thermo Fisher Scientific, A1517001) containing 10 uM ROCK inhibitor Y-27632 (Selleck Chemicals S1049). […] Cells were evaluated for GFP and DAPI on either a LSRFortessa or LSR-II machine and FACSDiva software ([…] Dickinson). […] Nanog-GFP expression was measured by GFP mean fluorescence intensity and quantified using FlowJo v9.0. […]

Assay [2] deals with ESCs. Briefly: Colony formation assay (alkaline phosphatase staining) after pulse treatment. Here is the method: For transient glutamine withdrawal (“pulse”) experiments, cells were initially plated in standard S/L medium as described above. The following day, cells were washed with PBS and then changed to experimental medium containing a 1:1 mix of glutamine-free DMEM and glutamine-free Neurobasal medium including 10% dialyzed FBS, 2-mercaptoethanol, LIF, and containing (“Ctrl”) or lacking (“Pulse”) L-glutamine as indicated. 24 hours later, cells were washed with PBS and then returned to glutamine-replete medium (“Recover”). 24 hours later, cells were subjected to either image analysis, flow cytometry, or plated for colony formation assays as indicated. For glutamine pulse experiments in human ESCs, cells were initially plated at a density of 300,000 cells/well in a tissue-culture treated polystyrene 12-well plate coated with vitronectin (Thermo Fisher Scientific, A14700) in E8 medium (Thermo Fisher Scientific, A1517001) containing 10 uM ROCK inhibitor Y-27632 (Selleck Chemicals S1049). 24 hrs after plating, medium was changed to modified E8 medium containing: DMEM high glucose without glutamine (Thermo Fisher 11960044), 10.7 mg/L Transferrin (Sigma T0665), 64 mg/L L-Ascorbic Acid (Sigma A890), 14 ug/L Sodium Selenite (Sigma S5261), 543 mg/L Sodium Bicarbonate (Research Products International 144558), 19.4 mg/L insulin (Sigma 19278), 100 ug/L bFGF (EMD Millipore GF003AF), 2 ug/L TGFβ1 (Peprotech 10021), and 2 mM L-glutamine. After 24 hrs of culture in modified E8 medium, medium was changed to modified E8 medium containing 2 mM or 0 mM L-glutamine for 24 hrs. All cells were then changed to modified E8 medium containing 2 mM L-glutamine and cultured for 24 hrs before harvest for analysis. […] For ESC colony formation assays, colonies were scored manually in a blinded fashion. For reprogramming experiments, alkaline-phosphatase colonies were scored automatically using ImageJ (NIH). Briefly, images of each well were binarized using the Default function and particles greater than 8 pixels with a circularity of 0.7-1.0 were counted.

In the case of `COC(=O)CCC(=O)C(=O)OC` [cell-permeable αKG, dimethyl-α-ketoglutarate], the “survival and proliferation in the absence of glutamine (population doublings)” value with ESCs [1] (48 h glutamine-free medium, FIG. 2G, 2H) was “capable of rescuing survival and proliferation in the absence of glutamine”. The “proliferation, viability and self-renewal of ESCs under glutamine withdrawal” value with ESCs [1] (S/L culture, FIG. 2A, 6A-6B) is reported as “sufficient to compensate for glutamine withdrawal”. Besides, in the assay with Nanog-GFP ESCs, the “Nanog-GFP expression after pulsed treatment” value is recorded as “transiently increase Nanog-GFP expression”. Besides, the “benefit of the glutamine withdrawal pulse on self-renewal (colony formation)” value with ESCs [2] (4 mM DM-αKG added during 24 h glutamine withdrawal, FIG. 3H) is reported as “abrogated the benefit of the pulse”. Further, the “self-renewal capacity of the ESC population after pulsed treatment (colony formation)” value with ESCs [2] (24 h pulse, 24 h recovery before plating, FIG. 3G, 7G) is listed as “no durable effect”.
